Assay results: US20260077071A1, “Targeted Delivery of Theranostic Agents” (Peter MacCallum Cancer Institute, priority 2022, published 2026)
Like-named read-outs stand apart in the source and are kept apart here. Square brackets hold non-standard residues; d marks the D form. Peptide text beside a SMILES is read from it. * marks the point of attachment. DOTA = O=C(O)CN1CCN(CC(=O)O)CCN(CC(=O)*)CCN(CC(=O)O)CC1; Phe(4-CF3) = N[C@@H](Cc1ccc(C(F)(F)F)cc1)C(=O)O; Phe(F5) = N[C@@H](Cc1c(F)c(F)c(F)c(F)c1F)C(=O)O; Phe(4-NH2) = Nc1ccc(C[C@H](N)C(=O)O)cc1; Phe(3-F) = N[C@@H](Cc1cccc(F)c1)C(=O)O; Phe(4-F) = N[C@@H](Cc1ccc(F)cc1)C(=O)O; 1Nal = N[C@@H](Cc1cccc2ccccc12)C(=O)O; NMeF = CN[C@@H](Cc1ccccc1)C(=O)O; NMeNle = CCCC[C@H](NC)C(=O)O; Sar = CNCC(=O)O

Molecular target: T1, human full-length CCK-2 receptor (Homo sapiens, UniProt P32239)
T1 construct: stably transfected to over-express the human full-length CCK-2 receptor (A431-CCK-2R); expressed in transfected cells
T1 sequence (P32239 1-447): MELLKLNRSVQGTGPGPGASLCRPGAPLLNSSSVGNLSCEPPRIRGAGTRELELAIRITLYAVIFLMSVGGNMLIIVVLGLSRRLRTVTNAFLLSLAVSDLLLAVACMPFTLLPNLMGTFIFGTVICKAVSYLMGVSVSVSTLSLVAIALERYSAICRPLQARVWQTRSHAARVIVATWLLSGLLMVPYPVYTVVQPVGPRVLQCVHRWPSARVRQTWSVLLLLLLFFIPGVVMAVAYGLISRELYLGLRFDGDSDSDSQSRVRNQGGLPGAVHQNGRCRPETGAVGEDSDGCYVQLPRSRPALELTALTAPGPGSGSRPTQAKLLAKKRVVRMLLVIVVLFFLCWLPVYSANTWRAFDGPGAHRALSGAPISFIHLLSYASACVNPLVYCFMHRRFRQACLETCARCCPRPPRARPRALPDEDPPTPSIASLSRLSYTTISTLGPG
Assay: Competitive ligand binding against [^177Lu]Lu-DOTA-CP04 in A431-CCK-2R cells
Settings: for IC50: read-out: IC50; for loss of binding affinity / activity: D-Ala analogue versus baseline comparative example-1; for decrease in affinity for the CCK-2 receptor: free peptide versus its linker/metal-complex (DOTA) form
Procedure: CCK-2 receptor binding experiments were conducted using A431 (human epidermoid carcinoma) cells stably transfected to over-express the human full-length CCK-2 receptor (A431-CCK-2R). As a negative control, A431 cells stably transfected with an empty vector were analysed simultaneously (A431-EV). A431 cells were maintained in DMEM (Gibco, Australia) media supplemented with 10% foetal calf serum and 250 μg/mL G418 as described previously (Aloj L, et al., J Nucl Med., 2004, Mar; 45(3), 485-94). The affinity of peptides for the CCK-2R was evaluated using competitive binding assays against [^177Lu]Lu-DOTA-CP04 in A431-CCK-2R cells. Briefly, 48 h before the experiment cells were plated at a density of 650,000 cells per well in 6 well plates. On the day of the experiment the peptides were diluted in DMEM supplemented with 1% foetal calf serum to at least 7 different concentrations (0-400 nM) and approximately 50,000 cpm of [^177Lu]Lu-DOTA-CP04 was added to each dilution. Cells were washed twice in ice-cold binding buffer (DMEM supplemented with 1% foetal calf serum) and resuspended in 1.5 mL of the pre-prepared compound mix before being incubated at 37° C. for 1 h. Post-incubation the media was removed and kept for analysis (unbound fraction) and the cells were washed twice in ice-cold binding buffer, which was pooled with the unbound fraction. Finally, 1 M NaOH was added to the cells and allowed to incubate for 5 min before lysates were collected (bound fraction). A small volume of lysate was kept aside to determine protein concentration using the Pierce® BCA protein assay kit (Thermo Fisher, Australia). All samples were analysed using the Perkin Elmer 2480 Wizard2™ gamma counter (PerkinElmer, Massachusetts, USA) and were normalised according to protein concentration. Half-maximal inhibitory concentrations (IC50) were determined using nonlinear regression calculated using GraphPad Prism Software (GraphPad Software, California, USA).
The compounds were evaluated for their ability to disrupt the binding between CCK-2 receptor (CCK-2R) and [^177Lu]Lu-DOTA-CP04 using the methodology described above and compared to comparative example-2 (FIG. 2; Table 5).

[1] = modified peptides based on Peptide C (Table 4)
[2] = D-Ala substituted peptides (Table 2), against [^177Lu]Lu-DOTA-CP04 in A431-CCK-2R cells
[3] = substituted-phenylalanine peptides based on Cmp ex-1 (Table 3)

SMILES	IC50 [1] [nM]	IC50 [2] [nM]	further results
CCCC[C@@H](C(=O)N[C@@H](CC(=O)O)C(=O)N(C)[C@@H](Cc1ccccc1)C(N)=O)N(C)C(=O)[C@H](Cc1c[nH]c2ccccc12)NC(=O)CN(C)C(=O)[C@H](Cc1ccc(O)cc1)NC(=O)[C@H](C)NC(=O)[C@@H](CCC(=O)O)NC(=O)[C@@H](CCC(=O)O)NC(=O)[C@@H](CCC(=O)O)NC(=O)[C@@H](C)NC(=O)[C@@H](CCC(=O)O)NC(=O)[C@@H](CCC(=O)O)NC(=O)CN1CCN(CC(=O)O)CCN(CC(=O)O)CCN(CC(=O)O)CC1 [^natGa-2, metal not drawn] ({DOTA}-[dE][dE][dA][dE][dE][dE]AY[Sar]W[NMeNle]D[NMeF]-NH2)	–	–	IC50 (^natGa chelated DOTA-compounds based on Peptide C (Table 5)): 0.185 nM
CCCC[C@@H](C(=O)N[C@@H](CC(=O)O)C(=O)N[C@@H](Cc1ccc(N)cc1)C(N)=O)N(C)C(=O)[C@H](Cc1c[nH]c2ccccc12)NC(=O)CN(C)C(=O)[C@H](Cc1ccc(O)cc1)NC(=O)[C@H](C)NC(=O)[C@@H](CCC(=O)O)NC(=O)[C@@H](CCC(=O)O)NC(=O)[C@@H](CCC(=O)O)NC(=O)[C@@H](C)NC(=O)[C@@H](CCC(=O)O)NC(=O)[C@H](N)CCC(=O)O [M] (H-[dE][dE][dA][dE][dE][dE]AY[Sar]W[NMeNle]D[Phe(4-NH2)]-NH2; N-terminus assumed)	0.741 ± 0.064	–	–
CCCC[C@@H](C(=O)N[C@@H](CC(=O)O)C(=O)N[C@@H](Cc1ccc(C(F)(F)F)cc1)C(N)=O)N(C)C(=O)[C@H](Cc1c[nH]c2ccccc12)NC(=O)CN(C)C(=O)[C@H](Cc1ccc(O)cc1)NC(=O)[C@H](C)NC(=O)[C@@H](CCC(=O)O)NC(=O)[C@@H](CCC(=O)O)NC(=O)[C@@H](CCC(=O)O)NC(=O)[C@@H](C)NC(=O)[C@@H](CCC(=O)O)NC(=O)[C@H](N)CCC(=O)O [P] (H-[dE][dE][dA][dE][dE][dE]AY[Sar]W[NMeNle]D[Phe(4-CF3)]-NH2; N-terminus assumed)	1.14	–	–
CCCC[C@@H](C(=O)N[C@@H](CC(=O)O)C(=O)N[C@@H](Cc1cccc2ccccc12)C(N)=O)N(C)C(=O)[C@H](Cc1c[nH]c2ccccc12)NC(=O)CN(C)C(=O)[C@H](Cc1ccc(O)cc1)NC(=O)[C@H](C)NC(=O)[C@@H](CCC(=O)O)NC(=O)[C@@H](CCC(=O)O)NC(=O)[C@@H](C)NC(=O)[C@@H](CCC(=O)O)NC(=O)[C@@H](CCC(=O)O)NC(=O)[C@H](N)CCC(=O)O [D] (H-[dE][dE][dE][dA][dE][dE]AY[Sar]W[NMeNle]D[1Nal]-NH2)	–	1.62	loss of binding affinity / activity: approx. 5 fold
CCCC[C@@H](C(=O)N[C@@H](CC(=O)O)C(=O)N[C@@H](Cc1ccc(F)cc1)C(N)=O)N(C)C(=O)[C@H](Cc1c[nH]c2ccccc12)NC(=O)CN(C)C(=O)[C@H](Cc1ccc(O)cc1)NC(=O)[C@H](C)NC(=O)[C@@H](CCC(=O)O)NC(=O)[C@@H](CCC(=O)O)NC(=O)[C@@H](CCC(=O)O)NC(=O)[C@@H](CCC(=O)O)NC(=O)[C@@H](CCC(=O)O)NC(=O)[C@H](N)CCC(=O)O [G] (H-[dE][dE][dE][dE][dE][dE]AY[Sar]W[NMeNle]D[Phe(4-F)]-NH2)	–	–	IC50 [3]: 0.92 nM
CCCC[C@@H](C(=O)N[C@@H](CC(=O)O)C(=O)N[C@@H](Cc1c(F)c(F)c(F)c(F)c1F)C(N)=O)N(C)C(=O)[C@H](Cc1c[nH]c2ccccc12)NC(=O)CN(C)C(=O)[C@H](Cc1ccc(O)cc1)NC(=O)[C@H](C)NC(=O)[C@@H](CCC(=O)O)NC(=O)[C@@H](CCC(=O)O)NC(=O)[C@@H](CCC(=O)O)NC(=O)[C@@H](CCC(=O)O)NC(=O)[C@@H](CCC(=O)O)NC(=O)[C@H](N)CCC(=O)O [J] (H-[dE][dE][dE][dE][dE][dE]AY[Sar]W[NMeNle]D[Phe(F5)]-NH2; N-terminus assumed)	–	–	IC50 [3]: 1.92 nM
CCCC[C@@H](C(=O)N[C@@H](CC(=O)O)C(=O)N[C@@H](Cc1cccc2ccccc12)C(N)=O)N(C)C(=O)[C@H](Cc1c[nH]c2ccccc12)NC(=O)CN(C)C(=O)[C@H](Cc1ccc(O)cc1)NC(=O)[C@H](C)NC(=O)[C@@H](C)NC(=O)[C@@H](CCC(=O)O)NC(=O)[C@@H](CCC(=O)O)NC(=O)[C@@H](CCC(=O)O)NC(=O)[C@@H](CCC(=O)O)NC(=O)[C@H](N)CCC(=O)O [F] (H-[dE][dE][dE][dE][dE][dA]AY[Sar]W[NMeNle]D[1Nal]-NH2)	–	1.62	loss of binding affinity / activity: approx. 5 fold
CCCC[C@@H](C(=O)N[C@@H](CC(=O)O)C(=O)N[C@@H](Cc1ccc(F)cc1)C(N)=O)N(C)C(=O)[C@H](Cc1c[nH]c2ccccc12)NC(=O)CN(C)C(=O)[C@H](Cc1ccc(O)cc1)NC(=O)[C@H](C)NC(=O)[C@@H](CCC(=O)O)NC(=O)[C@@H](CCC(=O)O)NC(=O)[C@@H](CCC(=O)O)NC(=O)[C@@H](C)NC(=O)[C@@H](CCC(=O)O)NC(=O)[C@H](N)CCC(=O)O [O] (H-[dE][dE][dA][dE][dE][dE]AY[Sar]W[NMeNle]D[Phe(4-F)]-NH2; N-terminus assumed)	0.368 ± 0.04	–	–
CSCC[C@H](NC(=O)[C@H](Cc1c[nH]c2ccccc12)NC(=O)CNC(=O)[C@H](Cc1ccc(O)cc1)NC(=O)[C@H](C)NC(=O)[C@@H](CCC(=O)O)NC(=O)[C@@H](CCC(=O)O)NC(=O)[C@@H](CCC(=O)O)NC(=O)[C@@H](CCC(=O)O)NC(=O)[C@@H](CCC(=O)O)NC(=O)[C@@H](CCC(=O)O)NC(=O)CN1CCN(CC(=O)O)CCN(CC(=O)O)CCN(CC(=O)O)CC1)C(=O)N[C@@H](CC(=O)O)C(=O)N[C@@H](Cc1ccccc1)C(N)=O [CP04, reference compound]	–	–	decrease in affinity for the CCK-2 receptor: greater than 3 fold
CCCC[C@@H](C(=O)N[C@@H](CC(=O)O)C(=O)N[C@@H](Cc1cccc(F)c1)C(N)=O)N(C)C(=O)[C@H](Cc1c[nH]c2ccccc12)NC(=O)CN(C)C(=O)[C@H](Cc1ccc(O)cc1)NC(=O)[C@H](C)NC(=O)[C@@H](CCC(=O)O)NC(=O)[C@@H](CCC(=O)O)NC(=O)[C@@H](CCC(=O)O)NC(=O)[C@@H](C)NC(=O)[C@@H](CCC(=O)O)NC(=O)[C@H](N)CCC(=O)O [U] (H-[dE][dE][dA][dE][dE][dE]AY[Sar]W[NMeNle]D[Phe(3-F)]-NH2; N-terminus assumed)	0.305 ± 0.013	–	–
CCCC[C@@H](C(=O)N[C@@H](CC(=O)O)C(=O)N[C@@H](Cc1cccc2ccccc12)C(N)=O)N(C)C(=O)[C@H](Cc1c[nH]c2ccccc12)NC(=O)CN(C)C(=O)[C@H](Cc1ccc(O)cc1)NC(=O)[C@H](C)NC(=O)[C@@H](CCC(=O)O)NC(=O)[C@@H](CCC(=O)O)NC(=O)[C@@H](CCC(=O)O)NC(=O)[C@@H](CCC(=O)O)NC(=O)[C@@H](C)NC(=O)[C@H](N)CCC(=O)O [B] (H-[dE][dA][dE][dE][dE][dE]AY[Sar]W[NMeNle]D[1Nal]-NH2)	–	1.23	loss of binding affinity / activity: approx. 5 fold
CCCC[C@@H](C(=O)N[C@@H](CC(=O)O)C(=O)N[C@@H](Cc1c(F)c(F)c(F)c(F)c1F)C(N)=O)N(C)C(=O)[C@H](Cc1c[nH]c2ccccc12)NC(=O)CN(C)C(=O)[C@H](Cc1ccc(O)cc1)NC(=O)[C@H](C)NC(=O)[C@@H](CCC(=O)O)NC(=O)[C@@H](CCC(=O)O)NC(=O)[C@@H](CCC(=O)O)NC(=O)[C@@H](C)NC(=O)[C@@H](CCC(=O)O)NC(=O)[C@H](N)CCC(=O)O [T] (H-[dE][dE][dA][dE][dE][dE]AY[Sar]W[NMeNle]D[Phe(F5)]-NH2; N-terminus assumed)	0.607 ± 0.052	–	–
CCCC[C@@H](C(=O)N[C@@H](CC(=O)O)C(=O)N[C@@H](Cc1cccc2ccccc12)C(N)=O)N(C)C(=O)[C@H](Cc1c[nH]c2ccccc12)NC(=O)CN(C)C(=O)[C@H](Cc1ccc(O)cc1)NC(=O)[C@H](C)NC(=O)[C@@H](CCC(=O)O)NC(=O)[C@@H](CCC(=O)O)NC(=O)[C@@H](CCC(=O)O)NC(=O)[C@@H](CCC(=O)O)NC(=O)[C@@H](CCC(=O)O)NC(=O)[C@H](N)CCC(=O)O [Cmp ex-1, reference compound] (H-[dE][dE][dE][dE][dE][dE]AY[Sar]W[NMeNle]D[1Nal]-NH2; N-terminus assumed)	–	0.319	decrease in affinity for the CCK-2 receptor: 5 fold
